Assay results as given in ChEMBL document CHEMBL4011641, “Prodrugs of Pyrazolo[3,4-d]pyrimidines: From Library Synthesis to Evaluation as Potential Anticancer Agents in an Orthotopic Glioblastoma Model” (J Med Chem, 2017).
In brackets after ≈: the same amount, converted by molar mass.

Assays:
[1] = Antitumor activity against human U87 cells xenografted in nude immunodeficient CD1 mouse assessed as mean survival time at 50 mg/kg, po administered every other day (reference value: 30 day); assay type: functional, U-87MG ATCC
Mus musculus [2] = assay: MRT in BALB/C mouse assessed as N-(3-bromophenyl)-1-(2-chloro-2-phenylethyl)-6-(2-morpholinoethylthio)-1H-pyrazolo[3,4-d]pyrimidin-4-amine level at 50 mg/kg administered through oral gavage as methylcellulose formulation measured at 1 to 24 hrs post dose by UV/LC-MS analysis; assay type: ADME, organism-based; details: in vivo
Mus musculus [3] = assay: Tmax in BALB/C mouse assessed as N-(3-bromophenyl)-1-(2-chloro-2-phenylethyl)-6-(2-morpholinoethylthio)-1H-pyrazolo[3,4-d]pyrimidin-4-amine level at 50 mg/kg administered through oral gavage as methylcellulose formulation measured at 1 to 24 hrs post dose by UV/LC-MS analysis; assay type: ADME, organism-based; details: in vivo
[4] = Metabolic stability in human liver microsomes assessed as parent compound remaining at 50 uM after 1 hr in presence of NADPH regenerating system by UV/LC-MS analysis; assay type: ADME, microsome; details: read-out: Stability
[5] = Metabolic stability in mouse liver microsomes assessed as unmetabolized compound remaining at 50 uM after 1 hr in presence of NADPH regenerating system by UV/LC-MS analysis; assay type: ADME, microsome; details: read-out: Stability
[6] = Plasma concentration in BALB/C mouse at 50 mg/kg, ip via bolus administration measured at 24 hrs post dose by UV/LC-MS; assay type: ADME, organism-based
Brain = assay: Drug uptake in BALB/C mouse brain at 50 mg/kg, ip via bolus administration measured at 24 hrs post dose by UV/LC-MS analysis; assay type: ADME, organism-based; details: in vivo
[7] = Cmax in BALB/C mouse at 50 mg/kg, ip administered via bolus dose using DMSO formulation measured at 1 to 24 hrs post dose by UV/LC-MS analysis; assay type: ADME, organism-based; parameters: dose 50 mg/kg, route intraperitoneal; details: in vivo
[8] = Tmax in BALB/C mouse at 50 mg/kg, ip administered via bolus dose using DMSO formulation measured at 1 to 24 hrs post dose by UV/LC-MS analysis; assay type: ADME, organism-based; details: in vivo
[9] = MRT in BALB/C mouse at 50 mg/kg, ip administered via bolus dose using DMSO formulation measured at 1 to 24 hrs post dose by UV/LC-MS analysis; assay type: ADME, organism-based; details: in vivo
[10] = AUC (0 to infinity) in BALB/C mouse at 50 mg/kg, ip administered via bolus dose using DMSO formulation measured at 1 to 24 hrs post dose by UV/LC-MS analysis; assay type: ADME, organism-based; parameters: dose 50 mg/kg, time infinity, route intraperitoneal; details: in vivo
[11] = AUC (0 to 24 hrs) in BALB/C mouse at 50 mg/kg, ip administered via bolus dose using DMSO formulation measured at 1 to 24 hrs post dose by UV/LC-MS analysis; assay type: ADME, organism-based; parameters: dose 50 mg/kg, time < 24 hr, route intraperitoneal; details: in vivo
[12] = Plasma clearance in BALB/C mouse at 50 mg/kg, ip administered via bolus dose using DMSO formulation measured at 1 to 24 hrs post dose by UV/LC-MS analysis; assay type: ADME, organism-based
[13] = Half life in BALB/C mouse at 50 mg/kg, ip administered via bolus dose using DMSO formulation measured at 1 to 24 hrs post dose by UV/LC-MS analysis; assay type: ADME, organism-based; details: in vivo
Mus musculus [14] = assay: Cmax in BALB/C mouse assessed as N-(3-bromophenyl)-1-(2-chloro-2-phenylethyl)-6-(2-morpholinoethylthio)-1H-pyrazolo[3,4-d]pyrimidin-4-amine level at 50 mg/kg, ip administered via bolus dose using DMSO formulation measured at 1 to 24 hrs post dose by UV/LC-MS analysis; assay type: ADME, organism-based; parameters: dose 50 mg/kg, route intraperitoneal; details: in vivo
Mus musculus [15] = assay: Tmax in BALB/C mouse assessed as N-(3-bromophenyl)-1-(2-chloro-2-phenylethyl)-6-(2-morpholinoethylthio)-1H-pyrazolo[3,4-d]pyrimidin-4-amine level at 50 mg/kg, ip administered via bolus dose using DMSO formulation measured at 1 to 24 hrs post dose by UV/LC-MS analysis; assay type: ADME, organism-based; details: in vivo
Mus musculus [16] = assay: MRT in BALB/C mouse assessed as N-(3-bromophenyl)-1-(2-chloro-2-phenylethyl)-6-(2-morpholinoethylthio)-1H-pyrazolo[3,4-d]pyrimidin-4-amine level at 50 mg/kg, ip administered via bolus dose using DMSO formulation measured at 1 to 24 hrs post dose by UV/LC-MS analysis; assay type: ADME, organism-based; details: in vivo
Mus musculus [17] = assay: AUC (0 to infinity) in BALB/C mouse assessed as N-(3-bromophenyl)-1-(2-chloro-2-phenylethyl)-6-(2-morpholinoethylthio)-1H-pyrazolo[3,4-d]pyrimidin-4-amine level at 50 mg/kg, ip administered via bolus dose using DMSO formulation measured at 1 to 24 hrs post dose by UV/LC-MS analysis; assay type: ADME, organism-based; parameters: dose 50 mg/kg, time infinity, route intraperitoneal; details: in vivo
Mus musculus [18] = assay: AUC (0 to 24 hrs) in BALB/C mouse assessed as N-(3-bromophenyl)-1-(2-chloro-2-phenylethyl)-6-(2-morpholinoethylthio)-1H-pyrazolo[3,4-d]pyrimidin-4-amine level at 50 mg/kg, ip administered via bolus dose using DMSO formulation measured at 1 to 24 hrs post dose by UV/LC-MS analysis; assay type: ADME, organism-based; parameters: dose 50 mg/kg, time < 24 hr, route intraperitoneal; details: in vivo
Mus musculus [19] = assay: Plasma clearance in BALB/C mouse assessed as N-(3-bromophenyl)-1-(2-chloro-2-phenylethyl)-6-(2-morpholinoethylthio)-1H-pyrazolo[3,4-d]pyrimidin-4-amine level at 50 mg/kg, ip administered via bolus dose using DMSO formulation measured at 1 to 24 hrs post dose by UV/LC-MS analysis; assay type: ADME, organism-based; details: in vivo
Mus musculus [20] = assay: Half life in BALB/C mouse assessed as N-(3-bromophenyl)-1-(2-chloro-2-phenylethyl)-6-(2-morpholinoethylthio)-1H-pyrazolo[3,4-d]pyrimidin-4-amine level at 50 mg/kg, ip administered via bolus dose using DMSO formulation measured at 1 to 24 hrs post dose by UV/LC-MS analysis; assay type: ADME, organism-based; details: in vivo
Mus musculus [21] = assay: Cmax in BALB/C mouse assessed as N-(3-bromophenyl)-1-(2-chloro-2-phenylethyl)-6-(2-morpholinoethylthio)-1H-pyrazolo[3,4-d]pyrimidin-4-amine level at 50 mg/kg administered through oral gavage as methylcellulose formulation measured at 1 to 24 hrs post dose by UV/LC-MS analysis; assay type: ADME, organism-based; parameters: dose 50 mg/kg, route oral; details: in vivo
Mus musculus [22] = assay: AUC (0 to infinity) in BALB/C mouse assessed as N-(3-bromophenyl)-1-(2-chloro-2-phenylethyl)-6-(2-morpholinoethylthio)-1H-pyrazolo[3,4-d]pyrimidin-4-amine level at 50 mg/kg administered through oral gavage as methylcellulose formulation measured at 1 to 24 hrs post dose by UV/LC-MS analysis; assay type: ADME, organism-based; parameters: dose 50 mg/kg, route oral, time infinity; details: in vivo
Mus musculus [23] = assay: AUC (0 to 24 hrs) in BALB/C mouse assessed as N-(3-bromophenyl)-1-(2-chloro-2-phenylethyl)-6-(2-morpholinoethylthio)-1H-pyrazolo[3,4-d]pyrimidin-4-amine level at 50 mg/kg administered through oral gavage as methylcellulose formulation measured at 1 to 24 hrs post dose by UV/LC-MS analysis; assay type: ADME, organism-based; parameters: dose 50 mg/kg, time < 24 hr, route oral; details: in vivo
Mus musculus [24] = assay: Plasma clearance in BALB/C mouse assessed as N-(3-bromophenyl)-1-(2-chloro-2-phenylethyl)-6-(2-morpholinoethylthio)-1H-pyrazolo[3,4-d]pyrimidin-4-amine level at 50 mg/kg administered through oral gavage as methylcellulose formulation measured at 1 to 24 hrs post dose by UV/LC-MS analysis; assay type: ADME, organism-based; details: in vivo
Mus musculus [25] = assay: Half life in BALB/C mouse assessed as N-(3-bromophenyl)-1-(2-chloro-2-phenylethyl)-6-(2-morpholinoethylthio)-1H-pyrazolo[3,4-d]pyrimidin-4-amine level at 50 mg/kg administered through oral gavage as methylcellulose formulation measured at 1 to 24 hrs post dose by UV/LC-MS analysis; assay type: ADME, organism-based; details: in vivo
Kidney = assay: Drug uptake in BALB/C mouse kidney at 50 mg/kg, ip via bolus administration measured at 24 hrs post dose by UV/LC-MS; assay type: ADME, organism-based; details: in vivo
[26] = Drug uptake in BALB/C mouse adipose tissue at 50 mg/kg, ip via bolus administration measured at 24 hrs post dose by UV/LC-MS; assay type: ADME, organism-based; details: in vivo
Liver = assay: Drug uptake in BALB/C mouse liver at 50 mg/kg, ip via bolus administration measured at 24 hrs post dose by UV/LC-MS; assay type: ADME, organism-based; details: in vivo
cells [27] = details: Homo sapiens, U-87 MG, 24 h
Description: Cytotoxicity against human U87 cells assessed as reduction in cell viability after 24 hrs by trypan blue assay

cells [28] = details: Homo sapiens, U-87 MG, 48 h
Description: Cytotoxicity against human U87 cells assessed as reduction in cell viability after 48 hrs by trypan blue assay

cells [29] = details: Homo sapiens, U-87 MG, 72 h
Description: Cytotoxicity against human U87 cells assessed as reduction in cell viability after 72 hrs by trypan blue assay

physchem [30] = details: PAMPA
Description: Apparent permeability at 500 uM after 5 hrs by Blood-Brain Barrier-based PAMPA

physchem [31] = details: aqueous
Description: Aqueous solubility of compound at 1 mg after 24 hrs by UV/LC-MS analysis

**Q.** Which MST [1] does the source give for ClC(Cn1ncc2c(Nc3cccc(Br)c3)nc(SCCN3CCOCC3)nc21)c1ccccc1 (centres undefined) here?
**A.** 44 days

**Q.** What about the MRT (Mus musculus [2]) of the same compound?
**A.** 11.97 h

**Q.** What about the Tmax (Mus musculus [3]) of the same compound?
**A.** 2 h

**Q.** What about the remaining at 1 h, 50 µM [4] of the same compound?
**A.** 97.2%

**Q.** And the remaining at 1 h, 50 µM [5]?
**A.** 89.2%

**Q.** What about the concentration at 24 h [6] of the same compound?
**A.** 2.6 µM

**Q.** What about the Drug uptake (Brain) of the same compound?
**A.** 2.7 nmol/g

**Q.** What about the Cmax [7] of the same compound?
**A.** 6.83 µM

**Q.** And the Tmax [8]?
**A.** 0.5 h

**Q.** And the MRT [9]?
**A.** 19.1 h

**Q.** What about the AUC(0-inf) [10] of the same compound?
**A.** 79.7 µM·h

**Q.** And the AUC(0-t) at 24 h [11]?
**A.** 56.1 µM·h

**Q.** And the CL/F [12]?
**A.** 0.46 mL/min

**Q.** What about the half-life [13] of the same compound?
**A.** 14.8 h

**Q.** And the Cmax (Mus musculus [14])?
**A.** 6.07 µM

**Q.** And the Tmax (Mus musculus [15])?
**A.** 1.5 h

**Q.** And the MRT (Mus musculus [16])?
**A.** 46.62 h

**Q.** And the AUC (Mus musculus [17])?
**A.** 135.11 µM·h

**Q.** And the AUC (Mus musculus [18])?
**A.** 55.14 µM·h

**Q.** What about the CL (Mus musculus [19]) of the same compound?
**A.** 0.27 mL/min

**Q.** What about the t1/2 (Mus musculus [20]) of the same compound?
**A.** 33.3 h

**Q.** And the Cmax (Mus musculus [21])?
**A.** 5.35 µM

**Q.** What about the AUC (Mus musculus [22]) of the same compound?
**A.** 43.53 µM·h

**Q.** And the AUC (Mus musculus [23])?
**A.** 36.69 µM·h

**Q.** What about the CL (Mus musculus [24]) of the same compound?
**A.** 1.14 mL/min

**Q.** And the t1/2 (Mus musculus [25])?
**A.** 9.06 h

**Q.** And the Drug uptake (Kidney)?
**A.** 3.6 nmol/g

**Q.** And the Drug uptake [26]?
**A.** 51.2 nmol/g

**Q.** What about the Drug uptake (Liver) of the same compound?
**A.** 1.7 nmol/g

**Q.** And the IC50 (cells [27])?
**A.** 17.3 µM

**Q.** What about the IC50 (cells [28]) of the same compound?
**A.** 6.8 µM

**Q.** What about the IC50 (cells [29]) of the same compound?
**A.** 1.9 µM

**Q.** And the Papp at 5 h, 500 µM (physchem [30])?
**A.** 7.1 ×10⁻⁶ cm/s

**Q.** And the solubility at 24 h (physchem [31])?
**A.** 3.7 µg/mL (≈ 6.45 µM)
